# Measured values reported in US11229592B2, “Method for hair volume reduction” (Conopco, Inc., priority 2017, dated 2022).
# Legend:
# [1] = Long lasting and durable volume reduction of treated hair switches after subsequent washing; conditions: switches from Example 1 subsequently washed, images captured; compared to control
# Method: (§1) Dark brown European wavy hair switches of length 25 cm and weight 2 gms, were treated as follows:
# (§2) At the end of the soaking period, the switches were left to dry at 20° C. and 50% RH. When dried, the switches were straightened with 5 passes of FHI irons (FHI Brands, 29003 Avenue Sherman Valencia, Calif. 91355 USA). The switches were then placed in a humidity chamber ˜30 C/80% RH for 1 hour and images were captured and analyzed.
# The switches from the above example were subsequently washed and the images were captured. […] The corresponding benefits for glycine was only −10%.
# [2] = Shape and frizz control (volume) of straightened hair switches after high humidity, image analysis; conditions: After 1 hour at high humidity (30 C./80% RH), switches soaked 30 minutes in 1% aqueous solution, dried, compared to water control
# Method: as §1
# Control: After initial washing, soaked for 30 minutes in water
# Comparative Example A: After initial washing, soaked for 30 minutes in aqueous solution of 1% glycine
# Example 1: soaked for 30 minutes in aqueous solution of 1% N-formyl glycine
# as §2
SMILES,benefit over control (volume reduction) [1] [%],% shape and frizz control benefit against control [2] [%]
"NCC(=O)O [Comparative Example A, glycine]",−10,−6
"O=CNCC(=O)O [Example 1, N-formyl glycine]",32,30
